# Source: patent publication US11147802B2, “Substituted oxadiazole chemical compound and composition containing said chemical compound and use thereof” (Shenzhen TargetRx, Inc., priority 2016, dated 2021)
# Columns and labels:
# [1] = Metabolic stability in rat liver microsomes; assay type: in vitro ADME; conditions: Sprague-Dawley (SD), pH 7.4, 1 μM compound, 0.5 mg/mL protein, 37° C.; for half-life at 1 μM: read-out: Rat liver microsomes t1/2
# Protocol: (§1) Metabolic Stability Evaluation
# (§2) Experiments in microsomes: Human liver microsomes: 0.5 mg/mL, Xenotech; Rat liver microsomes: 0.5 mg/mL, Xenotech; Coenzyme (NADPH/NADH): 1 mM, Sigma Life Science; Magnesium chloride: 5 mM, 100 mM phosphate buffer (pH 7.4).
# (§3) Preparation of stock solution: Powder of the example compound was accurately weighed and dissolved in DMSO to 5 mM.
# (§4) Preparation of phosphate buffer (100 mM, pH7.4): A pre-formulated 0.5M potassium dihydrogen phosphate (150 mL) was mixed with 0.5M dibasic potassium phosphate (700 mL). The pH of the mixture was adjusted to 7.4 with 0.5M dibasic potassium phosphate solution. The mixture was diluted 5-fold with ultrapure water before use, and magnesium chloride was added to obtain a phosphate buffer (100 mM) containing 100 mM potassium phosphate, 3.3 mM magnesium chloride, pH 7.4.
# (§5) A NADPH regeneration system solution (containing 6.5 mM NADP, 16.5 mM G-6-P, 3 U/mL G-6-PD, 3.3 mM magnesium chloride) was prepared and placed on wet ice prior to use.
# (§6) Preparation of stop solution: acetonitrile solution containing 50 ng/mL propranolol hydrochloride and 200 ng/mL tolbutamide (internal standard). 25057.5 μL of phosphate buffer (pH 7.4) was taken into a 50 mL centrifuge tube, to which 812.5 μL human liver microsomes were added, and mixed to obtain a liver microsome dilution solution with a protein concentration of 0.625 mg/mL. 25057.5 μL of phosphate buffer (pH 7.4) was taken into a 50 mL centrifuge tube, to which 812.5 μL SD rat liver microsomes were added, and mixed to obtain a liver microsome dilution solution with a protein concentration of 0.625 mg/mL.
# (§7) Incubation of the samples: The stock solution of the respective compound was respectively diluted to 0.25 mM with an aqueous solution containing 70% acetonitrile, and used as a working solution, ready for use. 398 μL of the dilution solution of human liver microsomes or rat liver microsome were added to a 96-well incubation plate (N=2), respectively, and 2 μL of 0.25 mM working solution was added and mixed.
# (§8) Metabolic stability assay: 300 μL of pre-chilled stop solution was added to each well of a 96-well deep well plate and placed on ice as a stop plate. The 96 well incubation plate and NADPH regeneration system were placed in a 37° C. water bath box, shaken at 100 rpm and pre-incubated for 5 min. 80 μL of incubation solution was taken out from each well of the incubation plate and added to the stop plate, mixed, and replenished with 20 μL of NADPH regeneration system solution as a 0-min sample. 80 μL of NADPH regeneration system solution was added to each well of the incubation plate to start the reaction and start counting. […] Separately, 100 μL of the reaction solution was taken at 10, 30, and 90 min reaction, respectively, added to a stop plate, and vortexed for 3 minutes to terminate the reaction. The stop plate was centrifuged at 5000×g at 4° C. for 4 min. 100 μL of the supernatant was added to a 96-well plate to which 100 μL of distilled water was previously added, mixed, and analyzed by LC-MS/MS.
# (§9) Data analysis: The peak areas of the corresponding compound and internal standard were detected by LC-MS/MS system, and the ratio of the peak area of the compound to the internal standard was calculated.
# [2] = Metabolic stability in human liver microsomes; assay type: in vitro ADME; conditions: pH 7.4, 1 μM compound, 0.5 mg/mL protein, 37° C.; for half-life at 1 μM: read-out: Human liver microsomes t1/2
# Protocol: as §1, §2, §3, §4, §5, §6, §7, §8, §9
SMILES,microsomal CLint at 1 μM [1],half-life at 1 μM [1],microsomal CLint at 1 μM [2],half-life at 1 μM [2]
[2H]C([2H])(CNS(N)(=O)=O)Nc1nonc1/C(=N\c1ccc(F)c(Br)c1)NO [Compound 11],18.9 µL/min/mg,1.22 h,< 9.6 µL/min/mg,> 2.5 h
[2H]c1cc(F)c(Br)c([2H])c1/N=C(/NO)c1nonc1NCCNS(N)(=O)=O [Compound 22],19.6 µL/min/mg,1.18 h,< 9.6 µL/min/mg,> 2.5 h
"[2H]c1cc(/N=C(/NO)c2nonc2NCCNS(N)(=O)=O)cc(Br)c1F [Compound 32, 4-({2-[(sulfamoyl)amino]ethyl}amino)-N-(3-bromo-4-fluoro-5-d-phenyl)-N′-hydroxy-1,2,5-oxadiazole-3-carboximidamide]",21.3 µL/min/mg,1.08 h,< 9.6 µL/min/mg,> 2.5 h
"[2H]C([2H])(CNc1nonc1/C(=N\c1ccc(F)c(Br)c1)NO)NS(N)(=O)=O [Compound 41, 4-({2-[(sulfamoyl)amino]-2,2-d2-ethyl}amino)-N-(3-bromo-4-fluorophenyl)-N′-hydroxy-1,2,5-oxadiazole-3-carboximidamide]",21 µL/min/mg,1.1 h,< 9.6 µL/min/mg,> 2.5 h
"[2H]C([2H])(Nc1nonc1/C(=N\c1ccc(F)c(Br)c1)NO)C([2H])([2H])NS(N)(=O)=O [Compound 47, 4-({2-[(sulfamoyl)amino]-1,1,2,2-d4-ethyl}amino)-N-(3-bromo-4-fluorophenyl)-N′-hydroxy-1,2,5-oxadiazole-3-carboximidamide]",18.7 µL/min/mg,1.23 h,< 9.6 µL/min/mg,> 2.5 h

# Continued, values first:
microsomal CLint at 1 μM [1],half-life at 1 μM [1],microsomal CLint at 1 μM [2],half-life at 1 μM [2],SMILES
19.2 µL/min/mg,1.2 h,< 9.6 µL/min/mg,> 2.5 h,[2H]c1cc(/N=C(/NO)c2nonc2NC([2H])([2H])C([2H])([2H])NS(N)(=O)=O)cc(Br)c1F [Compound 52]
,,< 9.6 µL/min/mg,> 2.5 h,"[2H]c1cc(F)c(Br)c([2H])c1/N=C(/NO)c1nonc1NC([2H])([2H])C([2H])([2H])NS(N)(=O)=O [Compound 57, 4-({2-[(sulfamoyl)amino]-1,1,2,2-d4-ethyl}amino)-N-(2,6-d2-3-bromo-4-fluoro-phenyl)-N′-hydroxy-1,2,5-oxadiazole-3-carboximidamide]"
17.5 µL/min/mg,1.32 h,< 9.6 µL/min/mg,> 2.5 h,[2H]c1c([2H])c(/N=C(/NO)c2nonc2NCCNS(N)(=O)=O)c([2H])c(Br)c1F [Compound 66]
20.5 µL/min/mg,1.13 h,< 9.6 µL/min/mg,> 2.5 h,"[2H]c1c([2H])c(/N=C(/NO)c2nonc2NC([2H])([2H])C([2H])([2H])NS(N)(=O)=O)c([2H])c(Br)c1F [Compound 71, 4-({2-[(sulfamoyl)amino]-1,1,2,2-d4-ethyl}amino)-N-(2,5,6-d3-3-bromo-4-fluoro-phenyl)-N′-hydroxy-1,2,5-oxadiazole-3-carboximidamide]"
22.6 µL/min/mg,1.02 h,< 9.6 µL/min/mg,> 2.5 h,"[2H]c1c([2H])c(/N=C(/NO)c2nonc2NCC([2H])([2H])NS(N)(=O)=O)c([2H])c(Br)c1F [Compound 76, 4-({2-[(sulfamoyl)amino]-1,1-d2-ethyl}amino)-N-(2,5,6-d3-3-bromo-4-fluoro-phenyl)-N′-hydroxy-1,2,5-oxadiazole-3-carboximidamide]"
18.5 µL/min/mg,1.25 h,< 9.6 µL/min/mg,> 2.5 h,"[2H]c1cc(F)c(Br)c([2H])c1/N=C(/NO)c1nonc1NC([2H])([2H])CNS(N)(=O)=O [Compound 81, 4-({2-[(sulfamoyl)amino]-1,1-d2-ethyl}amino)-N-(2,6-d2-3-bromo-4-fluoro-phenyl)-N′-hydroxy-1,2,5-oxadiazole-3-carboximidamide]"
20.1 µL/min/mg,1.15 h,9.6 µL/min/mg,2.4 h,"NS(=O)(=O)NCCNc1nonc1C(=NO)Nc1ccc(F)c(Br)c1 [Epacadostat, reference compound]"
